Experimental data taken from the supplement of paper PMC10307832.

Tests used:
Test in all cases: relative viability (nuclei count vs DMSO), 5 days (fraction); higher = more cells survive
[1] = compound: COC1=CC(c2cc3ccccc3[nH]2)=N/C1=C\c1[nH]c(C)cc1C [Obatoclax] + Cc1nc(Nc2ncc(C(=O)Nc3c(C)cccc3Cl)s2)cc(N2CCN(CCO)CC2)n1 [Dasatinib] (partner 0.075 µM)
How it was run: (§1)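 Lung cancer cell lines were seeded in 1536-well plates and dosed by pin tool the next day, with either a single drug or a fixed anchor-drug dose combined with five library-drug doses (not always all listed) spaced in √10 steps. Five days later, one step fixed the cells and stained their nuclei (final 0.05% Triton X-100, 1% formaldehyde, 1 ug/ml Hoechst), and nuclei were counted on 4× images. Relative viability is the nuclei count in treated wells divided by the count in vehicle wells, and each value is the median of duplicate plates.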

[2] = compound: CC(C)C[C@H](NC(=O)[C@H](Cc1ccccc1)NC(=O)c1cnccn1)B(O)O [Bortezomib] + Cc1cc(Nc2cc(N3CCN(C)CC3)nc(Sc3ccc(NC(=O)C4CC4)cc3)n2)n[nH]1 [Tozasertib] (partner 0.1 µM)
How it was run: as §1

[3] = compound: CC(C)C[C@H](NC(=O)[C@H](Cc1ccccc1)NC(=O)c1cnccn1)B(O)O [Bortezomib] + O=C(c1cc(Cc2n[nH]c(=O)c3ccccc23)ccc1F)N1CCN(C(=O)C2CC2)CC1 [Olaparib] (partner 8 µM)
How it was run: as §1

[4] = compound: COC1=CC(c2cc3ccccc3[nH]2)=N/C1=C\c1[nH]c(C)cc1C [Obatoclax] + Cc1nc(NC(=O)N2CCC[C@H]2C(N)=O)sc1-c1ccnc(C(C)(C)C(F)(F)F)c1 [Alpelisib] (partner 2 µM)
How it was run: as §1

Cell Line	relative viability ([1]; first compound 0.01 µM)	relative viability ([1]; first compound 0.03162 µM)	relative viability ([1]; first compound 0.1 µM)	relative viability ([1]; first compound 0.3162 µM)	relative viability ([1]; first compound 1 µM)	relative viability ([2]; first compound 0.0002 µM)	relative viability ([2]; first compound 0.000632 µM)	relative viability ([2]; first compound 0.002 µM)	relative viability ([2]; first compound 0.006325 µM)	relative viability ([2]; first compound 0.02 µM)	relative viability ([3]; first compound 0.0002 µM)	relative viability ([3]; first compound 0.000632 µM)	relative viability ([3]; first compound 0.002 µM)	relative viability ([3]; first compound 0.006325 µM)	relative viability ([3]; first compound 0.02 µM)	relative viability ([4]; first compound 0.01 µM)	relative viability ([4]; first compound 0.03162 µM)	relative viability ([4]; first compound 0.1 µM)	relative viability ([4]; first compound 0.3162 µM)	relative viability ([4]; first compound 1 µM)
ChaGo-K-1	0.637	0.582	0.502	0.584	0.644	0.233	0.207	0.248	0.165	0.155	0.387	0.385	0.432	0.151	0.115	–	–	–	–	–
EBC-1	–	–	–	–	–	–	–	–	–	–	0.756	0.67	0.229	0.0791	0.064	0.82	0.92	0.902	0.435	0.251
EKVX	0.567	0.491	0.539	0.594	0.522	0.419	0.437	0.342	0.2	0.105	0.763	0.81	0.812	0.237	0.11	0.941	0.9	1.02	0.853	0.891
EMC-BAC-2	0.357	0.325	0.255	0.264	0.284	0.249	0.274	0.403	0.171	0.174	0.469	0.486	0.487	0.258	0.185	0.658	0.797	0.744	0.738	0.696
EPLC-272H	0.36	0.31	0.342	0.264	0.147	0.297	0.258	0.221	0.1	0.101	0.9	0.746	0.171	0.0682	0.0612	1.08	0.962	0.808	0.906	0.941
H3255	0.301	0.323	0.422	0.348	0.302	0.783	0.589	0.564	0.184	0.243	0.579	0.545	0.36	0.233	0.237	0.611	0.725	0.732	0.631	0.55
HARA	0.226	0.233	0.335	0.358	0.255	0.0998	0.0941	0.0961	0.0503	0.061	0.973	0.809	0.872	0.0712	0.0979	0.942	0.529	0.916	0.802	0.78
HCC-15	0.574	0.589	0.533	0.626	0.368	0.372	0.45	0.405	0.0716	0.0808	0.763	0.734	0.662	0.108	0.0913	0.844	0.777	0.827	0.856	0.609
HCC-44	–	–	–	–	–	0.887	–	0.305	0.161	0.221	0.942	0.986	0.99	0.715	0.315	0.84	0.706	0.801	0.607	0.21
